System: MIA PaCa-2 cells
Assay: Gemcitabine treatment, cell viability by CCK-8 assay
Type: cell-based, human
Details: method says 20 μM for 48 hr
Experimental: Gemcitabine Treatment Cells were seeded in 96-well plates at a density of 10^4 cells/well. […] Cell viability was accessed by CCK-8 assay following the manufacturer's instructions. Briefly, a mixture of 10 μL of CCK-8 and 190 μL media was added into each well, and the cells were incubated for another 1 hr. The absorbance of each well was measured at 450 nm using a microplate reader. Each experiment was performed in 6 repeats.

In the case of `Nc1ccn([C@@H]2O[C@H](CO)[C@@H](O)C2(F)F)c(=O)n1` [gemcitabine], the “viability of malignant MIA PaCa-2 cells with vs without gemcitabine treatment” value is reported as “dramatic decrease in viability”.
